According to patent US6358736B1, “Method for increasing the antigen presenting ability of leukemia cells” (The United States of America as represented by the …, priority 1995, dated 2002):

How the values were obtained:
[1] = system: monocytes cocultured with autologous CD8+ T cells; test: Autologous CD8+ T cell sensitization to peptide-pulsed monocytes (interferon gamma secretion); type: cell-based, human
Method: Monocyte-rich elutriation fractions from healthy HLA-A2.1 donors were either untreated or treated with ionophore A23187 750 ng/ml for 40 hours, then pulsed with either the M1 influenza-derived peptide or the MART1 melanoma-derived peptide (the M1 peptide is a “recall antigen” for all HLA-A2.1^pos individuals, whereas the MART1 peptide is usually a “recall antigen” only for HLA-A2.^pos patients with melanoma). Antigen-pulsed monocytes were cocultured with freshly prepared autologous CD8^+ T cells for 8-10 days; the T cells were then harvested and cocultured with peptide-pulsed HLA-A2.1 positive T2 stimulator cells which had been pulsed 2 hours with 1 μg/ml of either the MART1 peptide, the influenza M1 derived peptide, or an irrelevant HIV peptide to assess whether specific sensitization to FLU or MART1 peptides was attained.
After 40 hours, the cells were pulsed with a tumor derived HER2neu (369-377) peptide for two hours, harvested, then FACS analyzed or cocultured for 8-10 days with naive autologous CD8^+ T cells to determine whether rapid sensitization to the HER2neu peptide could be achieved.

[2] = system: HL-60 cells cocultured with allogeneic naive T cells; test: T cell allosensitization by irradiated treated HL-60 cells (3H-TdR); type: cell-based, human; conditions: A23187 180 ng/ml with or without rhGM-CSF 20 ng/ml and IFN-gamma 1000 u/ml, three days
Method: Fresh allogeneic naive (CD45R0 negative) T cells were prepared and cocultured with graded numbers of irradiated (3000R) HL-60 cells treated under the above-described conditions. Four days later the cultures were pulsed with ^3H-TdR (tritiated thymidine) and harvested 18 hours later.
Cells were harvested after three days, irradiated (3000R), then FACS analyzed or cocultured in graded numbers with freshly prepared naive (CD45RO negative) T lymphocytes. Allosensitization was assessed by pulsing at day 4 with ^3H-TdR and harvesting 18 hours later.

monocytes = test: Calcium-chelation luminescence spectrophotometry of intracellular calcium flux; type: cell-based, human; conditions: indol-loaded monocytes; calcium ionophore 180-750 ng/ml
Method: Calcium-chelation luminescence spectrophotometry was utilized to measure intracellular calcium fluxes in monocytes. Monoytes were incubated with 5 uM/ml indol, a calcium chelating agent which emits fluorescence at different wavelengths (405 or 480 nm) depending on whether or not it is bound to cycloplasmic calcium. Increased calcium mobilization causes relative shifts in emission from one wavelength to the other. After 30 minute incubation with indol, monocytes were washed, pulsed with a variety of agents such as calcium ionophore, virus, f-MET-LEU-PHE, or LPS. To measure calcium fluxes at subsequent time intervals, cells were stimulated with a 355 nm wavelength beam, and fluorescence emission measured at 405 and 480 nm.

[3] = system: monocyte subpopulation within PBMC; test: FACS analysis of monocyte subpopulation in unfractionated PBMC; type: cell-based, human; conditions: A23187 750 ng/ml, 40 hours
Method: (§1) PBMC were prepared by leukapheresis and Ficoll-Hypaque and placed in culture. Since the cells were never elutriated and no adherence step was performed, these cultures deliberately included large numbers of T, B, and NK lymphocytes as well as monocytes. The medium was our standard RPMI 10% human AB serum with antibiotics including amphotericin B. Cells were either untreated or treated for 40 hours with calcium ionophore A23187 750 ng/ml. Cells were then harvested and analyzed by FACS. Cells were stained with FITC conjugated anti-CD3, anti-CD40, anti-CD57, anti-CD 14, or the combination; in addition cells were stained with PE conjugated control antibodies, anti-B7.1, anti-B7.2, etc. In this way the effect of calcium ionophore treatment on each parameter could be clearly delineated.

[4] = system: T lymphocyte subpopulation within the PBMC; test: FACS analysis of T lymphocyte subpopulation in unfractionated PBMC; type: cell-based, human; conditions: A23187 750 mg/ml, 40 hours
Method: as §1, with “cultures” for “cultures deliberately”, “[…].” for “ng/ml.”, “anti-CD14,” for “anti-CD 14,”

[5] = system: NK subpopulation within the PBMC; test: FACS analysis of NK subpopulation in unfractionated PBMC; type: cell-based, human; conditions: A23187 750 mg/ml, 40 hours
Method: as §1, with “cultures” for “cultures deliberately”, “[…].” for “ng/ml.”, “anti-CD14,” for “anti-CD 14,”

[6] = system: adherence-enriched monocytes; test: FACS analysis of monocytes enriched by Ficoll separation and adherence; type: cell-based, human; conditions: A23187 750 ng/ml, 20 hours
Method: Blood was drawn in heparinized syringes (approximately 80 cc), diluted 1:1 with normal saline, layered on Ficoll-Hypaque, and centrifuged for 20 minutes to remove neutrophils and red blood cells. The peripheral blood mononuclear cell (PBMC) containing interface were washed, counted, and added to 24 well plates, 2 cc culture medium per well, 2×10^7 cells per well.
After 60 minutes the non adherent cells were removed, leaving a half confluent surface of adherent cells in each well (i.e., monocyte enrichment by adherence) Wells were either untreated or treated with calcium ionophore A23 187 750 ng/ml, and harvested 20 hours later.

HUVEC = test: FACS analysis of umbilical vein endothelial cells; type: cell-based, human
Method: Endothelial cells were previously isolated from human umbilical vein (HUVEC), then cultured in IMEM with 20% fetal calf serum and rhEGF ([…]). The cells in this experiment had undergone four previous passages to confluence and were trypsinized and reseeded in T25 flasks. After four days culture to reachieve confluence individual flasks were treated with several concentrations of calcium ionophore (180, 375 and 750 ng/ml). Two days later, cells were harvested by trypsinization and analyzed.

WEHI-3 = test: Costimulatory molecule expression on mouse myeloid leukemia line; type: cell-based; conditions: following calcium mobilization
From the text: Myeloid leukemia cell lines display marked upregulation of molecules linked to antigen-presentation and acquire increased T cell sensitizing capacity following calcium mobilization with either calcium ionophore or thapsigargin.

[7] = system: monocytes / dendritic cells cocultured with allogeneic T cells; test: Allogeneic T cell sensitization (3H-thymidine) by treated monocytes/dendritic cells; conditions: A23187 750 ng/ml, 40 hours
Method: Uncultured monocytes and DC were each purified from elutriation fractions using Miltenyi microsuperparamagnetic beads; monocytes were positively selected based on CD14 expression, while dendritic cells were negatively selected based on low CD14 expression, then positively selected based on CD33 (myeloid marker) expression. Each isolated fraction was cultured for 40 hours either in medium alone or in ionophore A23187 750 ng/ml, then harvested and either FACS analyzed or microcultured with freshly prepared allogeneic T lymphocytes. Graded numbers of the cultured monocytes or dendritic cells were added to fixed numbers of T cells to compare their antigen-presenting ability. Four days later the microcultures were pulsed with ^3H-dTr and harvested 18 hours later.
Monocyte rich elutriation fractions were cultured for 40 hours with either no additives, ionophore A23187 750 ng/ml, or rhIlL-4 (1000 u/ml) and rhGM-CSF (20 ng/ml), a cytokine combination which leads monocytes to differentiate completely to dendritic cells during seven days of culture (Pickl et al, J. Immunol. 157:3850, 1996). MOMC were then harvested, irradiated (1000 rads) and cocultured in triplicate at various MOMC: T cell ratios with 10^5 allogeneic freshly prepared CD4^+ T cells in 0.2 ml RPMI with 5% AB plasma in 96 well tissue flat bottom culture plates. No cytokines were added during coculture. After 4 days [^3H]thymidine (1 μCi/well) was added and 18 hours later the wells were harvested and counted.
Monocytes in monocyte rich elutriation fractions (90-93% monocytes) were further purified using Miltenyi microsuperparagnetic beads coupled to anti-CD14. After incubation with these beads cells were applied to a magnetized column to positively select the strongly CD14^pos cells, and were enriched to >98% purity. Unpurified or purified monocytes were cultured for 40 hours in our standard culture medium with 750 ng/ml ionophore A23187, then harvested. The recovered cells were either immediately FACS analyzed or added in graded numbers to freshly prepared allogeneic T cells to assay their antigen presenting function. Four days later, the T cell cultures were pulsed with ^3H-TdR (tritiated thymidine) and harvested 18 hours later.

## CNc1ccc2oc(C[C@H]3O[C@@]4(CC[C@H]3C)O[C@H]([C@H](C)C(=O)c3ccc[nH]3)[C@H](C)C[C@H]4C)nc2c1C(=O)O [A23187]
[1]; A23187 750 ng/ml, 40 hours, HLA-A2.1 donors
  stimulation of autologous T cell response to recall antigen M1 influenza peptide, vs untreated monocytes: equally able
[1]; A23187 750 ng/ml, 40 hours, eight normal donors
  sensitization of autologous T cells to MART1 peptide: in every instance
[1]; monocytes treated 40 hours, majority of patients
  T cell sensitization to HER2neu (369-377) peptide: could not be achieved
[2]
  allostimulation of naive T cells: significantly allostimulatory
monocytes
  intracellular calcium flux / mobilization: marked sustained monocyte mobilization
[3]
  CD14 expression: downregulation of CD14 to a background level
  increase of B7.1 expression: seven
  increase of B7.2 expression: 10 fold
  increase of CD40 expression: 7 fold
  increase of CD83 expression: 11 fold
  increase of HLA-DR expression: 9 fold
  increase of ICAM-1 expression: 4.5 fold
[4]
  B7.2 upregulation over culture without ionophore: 10 fold
  CD40 upregulation: 4 fold
  HLA-DR upregulation: 6 fold
  ICAM-1 upregulation: 3.3 fold
[5]
  upregulation of surface markers: negligible upregulation of surface markers
[6]
  B7.1 and CD83 expression: de novo B7.1 and CD83 expression
  B7.2, HLA-DR and CD40 expression: upregulated B72, HLA-DR, and CD40 expression
  CD14 expression: uniform CD14 downregulation
HUVEC; 375 and 750 ng/ml, two days
  ICAM-1 and CD40 expression: upregulated ICAM-1 and CD40 expression
HUVEC; two days
  HLA-ABC expression: unchanged
HUVEC; with or without ionophore treatment
  B7.1, B7.2, HLA-DR and CD83 expression: failed to express detectable B7.1, B7.2, HLA-DR or CD83
WEHI-3
  costimulatory molecule expression: markedly increased costimulatory molecule expression
[7]
  T cell sensitizing capacity of purified monocytes vs prepurified fraction cells: enhanced T cell sensitizing capacity identical on a cell numbers basis
[7]; graded numbers
  T cell sensitizing capacity of treated monocytes (allogeneic CD4+ T cells): much greater T cell sensitizing capacity
[7]; vs untreated
  T cell sensitizing efficiency of purified DC: only a modest increase
  T cell sensitizing efficiency of purified monocytes: a more marked enhancement
